{"source": "patent US20140171357A1", "about": "“VANCOMYCIN DERIVATIVES” (Seachald Pharmaceuticals, Inc., priority 2011, published 2014)", "key": {"[1]": {"tested_on": "Staphylococcus epidermidis (43 strains)", "assay": "MIC broth microdilution, S. epidermidis", "details": "S. epidermidis (43)"}, "[2]": {"tested_on": "methicillin-resistant S. aureus (MRSA, 22)", "assay": "MIC broth microdilution, MRSA"}, "[3]": {"tested_on": "VanC enterococci (22)", "assay": "MIC broth microdilution, vanC-carrying enterococci", "details": "VanC enterococci (22)"}, "[4]": {"tested_on": "vancomycin-resistant S. aureus (VRSA, 6)", "assay": "MIC broth microdilution, VRSA"}, "[5]": {"tested_on": "vancomycin-susceptible E. faecium (21)", "assay": "MIC broth microdilution, vancomycin-susceptible E. faecium", "details": "E. faecium, vancomycin-susceptible (21)"}, "[6]": {"tested_on": "vancomycin-susceptible E. faecalis (23)", "assay": "MIC broth microdilution, vancomycin-susceptible E. faecalis", "details": "E. faecalis, vancomycin-susceptible (23)"}, "[7]": {"tested_on": "S. aureus ATCC 25923", "assay": "Neutropenic murine thigh infection model", "details": "for AUCc-t (AUC difference between control and treated animals): 24 h time kill"}, "[8]": {"tested_on": "VanB vancomycin-resistant E. faecalis (12)", "assay": "MIC broth microdilution, VanB E. faecalis", "details": "E. faecalis, VanB (12)"}, "[9]": {"tested_on": "methicillin-susceptible S. aureus (MSSA, 22)", "assay": "MIC broth microdilution, MSSA"}, "[10]": {"tested_on": "heterogeneous VISA (hVISA, 10)", "assay": "MIC broth microdilution, hVISA"}, "[11]": {"tested_on": "Staphylococcus aureus (65 strains)", "assay": "MIC broth microdilution, S. aureus all isolates", "details": "S. aureus (65), all resistance subsets"}, "[12]": {"tested_on": "VanA vancomycin-resistant E. faecium (10)", "assay": "MIC broth microdilution, VanA E. faecium", "details": "E. faecium, VanA (10)"}, "[13]": {"tested_on": "vancomycin-intermediate S. aureus (VISA, 5)", "assay": "MIC broth microdilution, VISA"}, "[14]": {"tested_on": "S. pneumoniae (22)", "assay": "MIC broth microdilution, S. pneumoniae"}, "[15]": {"tested_on": "VanA vancomycin-resistant E. faecalis (11)", "assay": "MIC broth microdilution, VanA E. faecalis", "details": "E. faecalis, VanA (11)"}, "[16]": {"tested_on": "β-hemolytic streptococci (23)", "assay": "MIC broth microdilution, β-hemolytic streptococci"}, "[17]": {"tested_on": "VanB vancomycin-resistant E. faecium (10)", "assay": "MIC broth microdilution, VanB E. faecium", "details": "E. faecium, VanB (10)"}, "[18]": {"tested_on": "B. anthracis Sterne 105", "assay_type": "cell-based, Bacillus anthracis", "details": "Tween 80 0.002% medium, serum condition not stated"}, "[19]": {"details": "1 mg/kg single intraperitoneal dose"}, "[20]": {"details": "4 mg/kg single intraperitoneal dose"}, "[21]": {"details": "16 mg/kg single intraperitoneal dose"}, "[22]": {"details": "S. pneumoniae (22), MHB + lysed horse blood"}, "[23]": {"details": "β-hemolytic streptococci (23), MHB + lysed horse blood"}}}
{"smiles": "CCCCCCCCCCNCCNC1(C)CC(OC2C(Oc3c4cc5cc3Oc3ccc(cc3Cl)C(O)C3NC(=O)C(NC(=O)C5NC(=O)C(CC(N)=O)NC(=O)C(NC(=O)C(CC(C)C)NC)C(O)c5ccc(c(Cl)c5)O4)c4ccc(O)c(c4)-c4c(O)cc(O)cc4C(C(=O)NCCOCCOCCN)NC3=O)OC(CO)C(O)C2O)OC(C)C1O", "note": "(centres unmarked) [Compound 2]", "values": [{"measurement": "MIC 50%", "setting": "[1]", "result": 0.03, "unit": "µg/mL"}, {"measurement": "MIC 90%", "setting": "[1]", "result": 0.06, "unit": "µg/mL"}, {"measurement": "modal MIC", "setting": "[2]; MRSA", "result": 0.06, "unit": "µg/mL"}, {"measurement": "MIC 50%", "setting": "[2]; MRSA (22)", "result": 0.06, "unit": "µg/mL"}, {"measurement": "MIC 90%", "setting": "[2]; MRSA (22)", "result": 0.12, "unit": "µg/mL"}, {"measurement": "MIC 50%", "setting": "[3]", "result": 0.06, "unit": "µg/mL"}, {"measurement": "MIC 90%", "setting": "[3]", "result": 0.12, "unit": "µg/mL"}, {"measurement": "MIC 50%", "setting": "[4]", "result": 1, "unit": "µg/mL"}, {"measurement": "MIC 50%", "setting": "[5]", "result": 0.015, "unit": "µg/mL"}, {"measurement": "MIC 90%", "setting": "[5]", "result": 0.03, "unit": "µg/mL"}, {"measurement": "MIC 50%", "setting": "[6]", "result": 0.06, "unit": "µg/mL"}, {"measurement": "MIC 90%", "setting": "[6]", "result": 0.12, "unit": "µg/mL"}, {"measurement": "Max Kill (maximum decrease from initial infection level)", "setting": "[7]; [19]", "result": "−0.28", "unit": "Log10 CFU/thigh"}, {"measurement": "AUCc-t (AUC difference between control and treated animals)", "setting": "[7]; [19]", "result": "29 (Log10 CFU/thigh)/hr"}, {"measurement": "Max Kill (maximum decrease from initial infection level)", "setting": "[7]; [20]", "result": "−1.01", "unit": "Log10 CFU/thigh"}, {"measurement": "AUCc-t (AUC difference between control and treated animals)", "setting": "[7]; [20]", "result": "40.1 (Log10 CFU/thigh)/hr"}, {"measurement": "Max Kill (maximum decrease from initial infection level)", "setting": "[7]; [21]", "result": "−1.13", "unit": "Log10 CFU/thigh"}, {"measurement": "AUCc-t (AUC difference between control and treated animals)", "setting": "[7]; [21]", "result": "55 (Log10 CFU/thigh)/hr"}, {"measurement": "organism reduction across doses", "setting": "[7]; 1, 4 and 16 mg/kg intraperitoneal", "result": "organism reduction over the entire dose range"}, {"measurement": "in vivo efficacy against S. aureus (in words)", "setting": "[7]; neutropenic soft tissue infection model", "result": "bactericidal characteristics and prolonged in vivo activity"}, {"measurement": "MIC 50%", "setting": "[8]", "result": 0.06, "unit": "µg/mL"}, {"measurement": "MIC 90%", "setting": "[8]", "result": 0.12, "unit": "µg/mL"}, {"measurement": "modal MIC", "setting": "[9]; MSSA", "result": 0.03, "unit": "µg/mL"}, {"measurement": "MIC 50%", "setting": "[9]; MSSA (22)", "result": 0.03, "unit": "µg/mL"}, {"measurement": "MIC 90%", "setting": "[9]; MSSA (22)", "result": 0.12, "unit": "µg/mL"}, {"measurement": "MIC 50%", "setting": "[10]", "result": 0.06, "unit": "µg/mL"}, {"measurement": "MIC 90%", "setting": "[10]", "result": 0.12, "unit": "µg/mL"}, {"measurement": "MIC 50%", "setting": "[11]", "result": 0.06, "unit": "µg/mL"}, {"measurement": "MIC 90%", "setting": "[11]", "result": 0.12, "unit": "µg/mL"}, {"measurement": "MIC 50%", "setting": "[12]", "result": 1, "unit": "µg/mL"}, {"measurement": "MIC 90%", "setting": "[12]", "result": 2, "unit": "µg/mL"}, {"measurement": "MIC 50%", "setting": "[13]", "result": 0.12, "unit": "µg/mL"}, {"measurement": "fold more potent than linezolid", "setting": "[14]; S. pneumoniae", "result": 32, "unit": "fold"}, {"measurement": "MIC 50%", "setting": "[14]; [22]", "result": 0.015, "unit": "µg/mL"}, {"measurement": "MIC 90%", "setting": "[14]; [22]", "result": 0.03, "unit": "µg/mL"}, {"measurement": "MIC 50%", "setting": "[15]", "result": 2, "unit": "µg/mL"}, {"measurement": "MIC 90%", "setting": "[15]", "result": 4, "unit": "µg/mL"}, {"measurement": "fold more potent than teicoplanin and daptomycin", "setting": "[16]; β-hemolytic streptococci", "result": "two- to four"}, {"measurement": "fold more potent than vancomycin", "setting": "[16]; β-hemolytic streptococci", "result": "four- to eight"}, {"measurement": "MIC 50%", "setting": "[16]; [23]", "result": 0.03, "unit": "µg/mL"}, {"measurement": "MIC 90%", "setting": "[16]; [23]", "result": 0.12, "unit": "µg/mL"}, {"measurement": "MIC 50%", "setting": "[17]", "result": 0.015, "unit": "µg/mL"}, {"measurement": "MIC 90%", "setting": "[17]", "result": 0.03, "unit": "µg/mL"}, {"measurement": "MIC", "setting": "[18]", "result": 0.03, "unit": "µg/mL"}]}
